Measurements from ChEMBL document CHEMBL1201862, “PubChem BioAssay data set” (2004).
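Cells were grown in 96-well plates and exposed to each compound for 48 hours at five concentrations; endpoints were interpolated linearly between bracketing concentrations, or set to the highest concentration if not reached. GI50 is the concentration that inhibits growth by half.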 Calls of active or inactive are those of the source. Cut-off read from the data, not from the text of the source: active = GI50 up to about 1.1 µM and inactive = higher.

How the values were obtained:
Experiment in all cases: NCI tumour cell line growth inhibition, 48 h
786-0 = tested on: 786-0
A498 = tested on: A498
A549 = tested on: A549
ACHN = tested on: ACHN
BT-549 = tested on: BT-549
CAKI-1 = tested on: CAKI-1
CCRF-CEM = tested on: CCRF-CEM
COLO 205 = tested on: COLO 205
DU-145 = tested on: DU-145
EKVX = tested on: EKVX
HCC 2998 = tested on: HCC 2998
HCT-116 = tested on: HCT-116
HCT-15 = tested on: HCT-15
HOP-62 = tested on: HOP-62
HOP-92 = tested on: HOP-92
HT-29 = tested on: HT-29
Hs-578T = tested on: Hs-578T
IGROV-1 = tested on: IGROV-1
K562 = tested on: K562
KM12 = tested on: KM12
LOX IMVI = tested on: LOX IMVI
M14 = tested on: M14
MDA-MB-231 = tested on: MDA-MB-231
MDA-MB-435 = tested on: MDA-MB-435
MDA-N = tested on: MDA-N
MOLT-4 = tested on: MOLT-4
Malme-3M = tested on: Malme-3M
NCI-H226 = tested on: NCI-H226
NCI-H23 = tested on: NCI-H23
NCI-H460 = tested on: NCI-H460
NCI-H522 = tested on: NCI-H522
NCI/ADR-RES = tested on: NCI/ADR-RES
OVCAR-3 = tested on: OVCAR-3
OVCAR-4 = tested on: OVCAR-4
OVCAR-5 = tested on: OVCAR-5
OVCAR-8 = tested on: OVCAR-8
PC-3 = tested on: PC-3
RPMI-8226 = tested on: RPMI-8226
RXF 393 = tested on: RXF 393
SF-268 = tested on: SF-268
SF-295 = tested on: SF-295
SF-539 = tested on: SF-539
SK-MEL-28 = tested on: SK-MEL-28
SK-MEL-2 = tested on: SK-MEL-2
SK-MEL-5 = tested on: SK-MEL-5
SK-OV-3 = tested on: SK-OV-3
SN12C = tested on: SN12C
SNB-19 = tested on: SNB-19
SNB-75 = tested on: SNB-75
SR = tested on: SR
SW-620 = tested on: SW-620
T47D = tested on: T47D
TK-10 = tested on: TK-10
U-251 = tested on: U-251
UACC-257 = tested on: UACC-257
UACC-62 = tested on: UACC-62
UO-31 = tested on: UO-31
HL-60 = tested on: HL-60
MCF7 = tested on: MCF7

CN(C)c1nc2n(CCO)c(-c3ccccc3)c(-c3ccccc3)nc-2c(=O)n1
GI50 (786-0): > 100 µM (inactive) | GI50 (A498): > 100 µM (inactive) | GI50 (A549): > 100 µM (inactive) | GI50 (ACHN): > 100 µM (inactive) | GI50 (BT-549): > 100 µM (inactive) | GI50 (CAKI-1): > 100 µM (inactive) | GI50 (CCRF-CEM): > 100 µM (inactive) | GI50 (COLO 205): > 100 µM (inactive) | GI50 (DU-145): > 100 µM (inactive) | GI50 (EKVX): > 100 µM (inactive) | GI50 (HCC 2998): > 100 µM (inactive) | GI50 (HCT-116): > 100 µM (inactive) | GI50 (HCT-15): > 100 µM | GI50 (HOP-62): > 100 µM (inactive) | GI50 (HOP-92): > 100 µM (inactive) | GI50 (HT-29): > 100 µM (inactive) | GI50 (Hs-578T): > 100 µM (inactive) | GI50 (IGROV-1): > 100 µM (inactive) | GI50 (K562): > 100 µM (inactive) | GI50 (KM12): > 100 µM (inactive) | GI50 (LOX IMVI): > 100 µM (inactive) | GI50 (M14): > 100 µM (inactive) | GI50 (MDA-MB-231): > 100 µM (inactive) | GI50 (MDA-MB-435): > 100 µM (inactive) | GI50 (MDA-N): > 100 µM (inactive) | GI50 (MOLT-4): > 100 µM (inactive) | GI50 (Malme-3M): > 100 µM (inactive) | GI50 (NCI-H226): > 100 µM (inactive) | GI50 (NCI-H23): > 100 µM (inactive) | GI50 (NCI-H460): > 100 µM (inactive) | GI50 (NCI-H522): > 100 µM (inactive) | GI50 (NCI/ADR-RES): > 100 µM (inactive) | GI50 (OVCAR-3): > 100 µM (inactive) | GI50 (OVCAR-4): > 100 µM (inactive) | GI50 (OVCAR-5): > 100 µM (inactive) | GI50 (OVCAR-8): > 100 µM (inactive) | GI50 (PC-3): > 100 µM (inactive) | GI50 (RPMI-8226): > 100 µM (inactive) | GI50 (RXF 393): > 100 µM (inactive) | GI50 (SF-268): > 100 µM (inactive) | GI50 (SF-295): > 100 µM (inactive) | GI50 (SF-539): > 100 µM (inactive) | GI50 (SK-MEL-28): > 100 µM (inactive) | GI50 (SK-MEL-2): > 100 µM (inactive) | GI50 (SK-MEL-5): > 100 µM (inactive) | GI50 (SK-OV-3): > 100 µM (inactive) | GI50 (SN12C): > 100 µM (inactive) | GI50 (SNB-19): > 100 µM (inactive) | GI50 (SNB-75): 21.7 µM (inactive) | GI50 (SR): > 100 µM (inactive) | GI50 (SW-620): > 100 µM (inactive) | GI50 (T47D): > 100 µM (inactive) | GI50 (TK-10): > 100 µM (inactive) | GI50 (U-251): > 100 µM (inactive) | GI50 (UACC-257): > 100 µM (inactive) | GI50 (UACC-62): > 100 µM (inactive) | GI50 (UO-31): > 100 µM (inactive)

Cc1ccc(S(=O)(=O)N/N=C2\CC3CC4CCC2C4C3)cc1 (stereo not drawn)
GI50 (786-0): > 100 µM (inactive) | GI50 (A498): > 100 µM (inactive) | GI50 (A549): > 100 µM (inactive) | GI50 (ACHN): > 100 µM (inactive) | GI50 (BT-549): > 100 µM (inactive) | GI50 (CAKI-1): > 100 µM (inactive) | GI50 (CCRF-CEM): > 100 µM (inactive) | GI50 (COLO 205): > 100 µM (inactive) | GI50 (DU-145): > 100 µM (inactive) | GI50 (EKVX): > 100 µM (inactive) | GI50 (HCC 2998): > 100 µM (inactive) | GI50 (HCT-116): > 100 µM (inactive) | GI50 (HCT-15): > 100 µM | GI50 (HL-60): > 100 µM (inactive) | GI50 (HOP-62): > 100 µM (inactive) | GI50 (HOP-92): > 100 µM (inactive) | GI50 (HT-29): > 100 µM (inactive) | GI50 (Hs-578T): > 100 µM (inactive) | GI50 (IGROV-1): > 100 µM (inactive) | GI50 (K562): > 100 µM (inactive) | GI50 (KM12): > 100 µM (inactive) | GI50 (LOX IMVI): > 100 µM (inactive) | GI50 (M14): > 100 µM (inactive) | GI50 (MCF7): > 100 µM (inactive) | GI50 (MDA-MB-231): > 100 µM (inactive) | GI50 (MDA-MB-435): > 100 µM (inactive) | GI50 (MDA-N): > 100 µM (inactive) | GI50 (MOLT-4): > 100 µM (inactive) | GI50 (Malme-3M): > 100 µM (inactive) | GI50 (NCI-H226): > 100 µM (inactive) | GI50 (NCI-H23): > 100 µM (inactive) | GI50 (NCI-H460): > 100 µM (inactive) | GI50 (NCI-H522): > 100 µM (inactive) | GI50 (OVCAR-3): > 100 µM (inactive) | GI50 (OVCAR-4): > 100 µM (inactive) | GI50 (OVCAR-5): > 100 µM (inactive) | GI50 (OVCAR-8): > 100 µM (inactive) | GI50 (PC-3): > 100 µM (inactive) | GI50 (RPMI-8226): > 100 µM (inactive) | GI50 (RXF 393): > 100 µM (inactive) | GI50 (SF-268): > 100 µM (inactive) | GI50 (SF-295): > 100 µM (inactive) | GI50 (SF-539): > 100 µM (inactive) | GI50 (SK-MEL-28): > 100 µM (inactive) | GI50 (SK-MEL-5): > 100 µM (inactive) | GI50 (SK-OV-3): > 100 µM (inactive) | GI50 (SN12C): > 100 µM (inactive) | GI50 (SNB-75): > 100 µM (inactive) | GI50 (SR): > 100 µM (inactive) | GI50 (SW-620): > 100 µM (inactive) | GI50 (T47D): > 100 µM (inactive) | GI50 (TK-10): > 100 µM (inactive) | GI50 (U-251): > 100 µM (inactive) | GI50 (UACC-257): > 100 µM (inactive) | GI50 (UACC-62): > 100 µM (inactive) | GI50 (UO-31): > 100 µM (inactive)
